Where two headings read alike, the source gives them in different places.
Tests used:
134 cancer cell lines = experiment: Cell viability assay (ATPlite, 72 hours), IC50 on cancer cell line panel
[1] = target: panel of 255 wild-type kinases (Homo sapiens, UniProt P29317); experiment: Kinase panel profiling at 1 µmol/L (MSA or IMAP), percentage inhibition; type: biochemical; settings: kinase EPHA2; 1 µmol/L single concentration; read-out: %-inhibition at 1 µmol/L, EPHA2
[2] = target: panel of 255 wild-type kinases (Homo sapiens, UniProt Q9Y6M4); experiment: as above; type: biochemical; settings: kinase CK1γ3; 1 µmol/L single concentration; read-out: %-inhibition at 1 µmol/L, CK1γ3
AP-1060 (ETV6-NTRK3) = experiment: Cell viability assay; settings: read-out: IC50 in cell proliferation assay

`COc1ccc(CN2C3CC2CN(c2ccc(-c4cc(OCC(C)(C)O)cn5ncc(C#N)c45)cn2)C3)cn1` [selpercatinib] showed an IC50 (134 cancer cell lines; Homo sapiens, MeWo, read-out: IC50 in cell proliferation assay, MeWo cell line) of 5.53 µM, an IC50 (134 cancer cell lines; Homo sapiens, NCCIT, read-out: IC50 in cell proliferation assay, NCC-IT cell line) of 1.58 µM and an IC50 (134 cancer cell lines; Homo sapiens, NCI-H82, read-out: IC50 in cell proliferation assay, cell line NCI-H82) of 3.23 µM. The IC50 (134 cancer cell lines; Homo sapiens, NCI-H460, read-out: IC50 in cell proliferation assay, NCI-H460 cell line) was 4.27 µM, the IC50 (134 cancer cell lines; Homo sapiens, NCI-H661, read-out: IC50 in cell proliferation assay, NCI-H661 cell line) was 8.68 µM and the IC50 (134 cancer cell lines; Homo sapiens, NCI-H716, read-out: IC50 in cell proliferation assay, cell line NCI-H716 (FGFR2-COL14A1)) was 0.262 µM. It also gave an IC50 (134 cancer cell lines; Homo sapiens, NCI-H1650, read-out: IC50 in cell proliferation assay, NCI-H1650 cell line (EGFR exon19del)) of 7.36 µM, an IC50 (134 cancer cell lines; Homo sapiens, NCI-H1975, read-out: IC50 in cell proliferation assay, NCI-H1975 cell line (EGFR p.L858R + p.T790M)) of 22.4 µM and an IC50 (134 cancer cell lines; Homo sapiens, NCI-H2228, read-out: IC50 in cell proliferation assay, NCI-H2228 cell line (EML4-ALK)) of 10.2 µM. The IC50 (134 cancer cell lines; Homo sapiens, OVCAR-3, read-out: IC50 in cell proliferation assay, cell line OVCAR-3) was 5.67 µM, the IC50 (134 cancer cell lines; Homo sapiens, PFSK-1, read-out: IC50 in cell proliferation assay, cell line PFSK-1) was over 31.6 µM and the IC50 (134 cancer cell lines; Homo sapiens, RL95-2, read-out: IC50 in cell proliferation assay, cell line RL95-2 (EGFR p.A289V)) was 2.28 µM. It also gave an IC50 (134 cancer cell lines; Homo sapiens, RPMI-7951, read-out: IC50 in cell proliferation assay, cell line RPMI-7951 (BRAF p.V600E)) of 5.59 µM, an IC50 (134 cancer cell lines; Homo sapiens, RS4-11, read-out: IC50 in cell proliferation assay, cell line RS4;11) of 1.63 µM and an IC50 (134 cancer cell lines; Homo sapiens, Rec1, read-out: IC50 in cell proliferation assay, cell line REC-1) of 7.32 µM. It also gave an IC50 (134 cancer cell lines; Homo sapiens, SHP77, read-out: IC50 in cell proliferation assay, cell line SHP-77) of 8.18 µM, an IC50 (134 cancer cell lines; Homo sapiens, SK-BR-3, read-out: IC50 in cell proliferation assay, cell line SK-BR-3 (ERBB2 amplification)) of 22.6 µM and an IC50 (134 cancer cell lines; Homo sapiens, SK-N-AS, read-out: IC50 in cell proliferation assay, cell line SK-N-AS) of 3.81 µM. It also gave an IC50 (134 cancer cell lines; Homo sapiens, SK-N-FI, read-out: IC50 in cell proliferation assay, cell line SK-N-FI) of 4 µM, an IC50 (134 cancer cell lines; Homo sapiens, SK-N-MC, read-out: IC50 in cell proliferation assay, cell line SK-N-MC) of 3.28 µM and an IC50 (134 cancer cell lines; Homo sapiens, SK-N-SH, read-out: IC50 in cell proliferation assay, cell line SK-N-SH (ALK p.F1174L)) of 2.59 µM. It also gave an IC50 (134 cancer cell lines; Homo sapiens, SNU-5, read-out: IC50 in cell proliferation assay, cell line SNU-5 (MET amplification)) of over 31.6 µM, an IC50 (134 cancer cell lines; Homo sapiens, SNU-16, read-out: IC50 in cell proliferation assay, cell line SNU-16 (FGFR2 amplification)) of 0.304 µM and an IC50 (134 cancer cell lines; Homo sapiens, SNU-C2B, read-out: IC50 in cell proliferation assay, cell line SNU-C2B (EGFR p.R165Q)) of over 31.6 µM. The IC50 (134 cancer cell lines; Homo sapiens, SU-DHL-1, read-out: IC50 in cell proliferation assay, cell line SU-DHL-1 (NPM1-ALK)) was 2.76 µM, the IC50 (134 cancer cell lines; Homo sapiens, SU-DHL-6, read-out: IC50 in cell proliferation assay, cell line SU-DHL-6) was 4.61 µM and the IC50 (134 cancer cell lines; Homo sapiens, SUP-T1, read-out: IC50 in cell proliferation assay, cell line SUP-T1) was 2.33 µM. For the same compound, the IC50 (134 cancer cell lines; Homo sapiens, SW48, read-out: IC50 in cell proliferation assay, cell line SW48 (EGFR p.G719S)) was 2.74 µM, the IC50 (134 cancer cell lines; Homo sapiens, SW480, read-out: IC50 in cell proliferation assay, cell line SW480) was 4.03 µM and the IC50 (134 cancer cell lines; Homo sapiens, SW626, read-out: IC50 in cell proliferation assay, cell line SW626) was over 31.6 µM. The IC50 (134 cancer cell lines; Homo sapiens, SW780, read-out: IC50 in cell proliferation assay, cell line SW780 (FGFR3-BAIAP2L1)) was 1.95 µM, the IC50 (134 cancer cell lines; Homo sapiens, SW837, read-out: IC50 in cell proliferation assay, cell line SW837) was 3.48 µM and the IC50 (134 cancer cell lines; Homo sapiens, SW872, read-out: IC50 in cell proliferation assay, cell line SW872 (BRAF p.V600E)) was 5.78 µM. It also gave an IC50 (134 cancer cell lines; Homo sapiens, SW900, read-out: IC50 in cell proliferation assay, cell line SW900) of 5.03 µM, an IC50 (134 cancer cell lines; Homo sapiens, SW948, read-out: IC50 in cell proliferation assay, cell line SW948) of 3.92 µM and an IC50 (134 cancer cell lines; Homo sapiens, SW982, read-out: IC50 in cell proliferation assay, cell line SW982 (BRAF p.V600E)) of 3.57 µM. It also gave an IC50 (134 cancer cell lines; Homo sapiens, SW-620, read-out: IC50 in cell proliferation assay, cell line SW620) of 2.62 µM, an IC50 (134 cancer cell lines; Homo sapiens, T98G, read-out: IC50 in cell proliferation assay, cell line T98G) of 2.69 µM and an IC50 (134 cancer cell lines; Homo sapiens, TCC-SUP, read-out: IC50 in cell proliferation assay, cell line TCCSUP) of 3.13 µM. For the same compound, the IC50 (134 cancer cell lines; Homo sapiens, THP-1, read-out: IC50 in cell proliferation assay, cell line THP-1) was over 31.6 µM, the IC50 (134 cancer cell lines; Homo sapiens, U2OS, read-out: IC50 in cell proliferation assay, cell line U2OS) was 4.78 µM and the IC50 (134 cancer cell lines; Homo sapiens, U-87 MG, read-out: IC50 in cell proliferation assay, cell line U-87MG ATCC) was over 31.6 µM. For the same compound, the IC50 (134 cancer cell lines; Homo sapiens, U-118-MG, read-out: IC50 in cell proliferation assay, cell line U-118MG) was 6.34 µM, the IC50 (134 cancer cell lines; Homo sapiens, UMUC3, read-out: IC50 in cell proliferation assay, cell line UM-UC-3) was 1.3 µM and the IC50 (134 cancer cell lines; Hs766T, read-out: IC50 in cell proliferation assay, Hs 766T cell line) was 4.97 µM. It also gave an IC50 (134 cancer cell lines; L-82, read-out: IC50 in cell proliferation assay, L-82 cell line (NPM1-ALK)) of 5.23 µM, an IC50 (134 cancer cell lines; Rh30, read-out: IC50 in cell proliferation assay, cell line Rh30) of 4.03 µM and an IC50 (134 cancer cell lines; read-out: IC50 in cell proliferation assay, 11-18 cell line (EGFR p.L858R)) of 4.08 µM. The IC50 (134 cancer cell lines; read-out: IC50 in cell proliferation assay, Hs 852.T cell line) was 5.9 µM, the IC50 (134 cancer cell lines; read-out: IC50 in cell proliferation assay, JAR cell line) was 4.4 µM and the IC50 (134 cancer cell lines; read-out: IC50 in cell proliferation assay, cell line 5637) was 4.53 µM. It also gave an IC50 (134 cancer cell lines; read-out: IC50 in cell proliferation assay, cell line A-388) of 9.59 µM, an IC50 (134 cancer cell lines; read-out: IC50 in cell proliferation assay, cell line DB) of 3.37 µM and an IC50 (134 cancer cell lines; read-out: IC50 in cell proliferation assay, cell line DEL (NPM1-ALK)) of 3.36 µM. For the same compound, the IC50 (134 cancer cell lines; read-out: IC50 in cell proliferation assay, cell line ES-2 (BRAF p.V600E)) was over 31.6 µM, the IC50 (134 cancer cell lines; read-out: IC50 in cell proliferation assay, cell line PA-1) was 1.82 µM and the IC50 (134 cancer cell lines; read-out: IC50 in cell proliferation assay, cell line PC-3) was 3.85 µM. It also gave an IC50 (134 cancer cell lines; read-out: IC50 in cell proliferation assay, cell line RD) of 6.94 µM, an IC50 (134 cancer cell lines; read-out: IC50 in cell proliferation assay, cell line RKO (BRAF p.V600E)) of 5.12 µM and an IC50 (134 cancer cell lines; read-out: IC50 in cell proliferation assay, cell line RL) of 2.06 µM. The IC50 (134 cancer cell lines; read-out: IC50 in cell proliferation assay, cell line RT-4 (FGFR3-TACC3)) was 1.38 µM, the IC50 (134 cancer cell lines; read-out: IC50 in cell proliferation assay, cell line SR (NPM1-ALK)) was 2.58 µM and the IC50 (134 cancer cell lines; read-out: IC50 in cell proliferation assay, cell line T24) was 5.15 µM. For the same compound, the IC50 (134 cancer cell lines; read-out: IC50 in cell proliferation assay, cell line TT (RET p.C634W)) was 0.019 µM, the IC50 (134 cancer cell lines; read-out: IC50 in cell proliferation assay, cell line VA-ES-BJ) was 2.79 µM and the inhibition at 1 µM [1] was 49%. For the same compound, the inhibition at 1 µM [2] was 12% and the IC50 (AP-1060 (ETV6-NTRK3)) was 3.96 µM.

— PMC9516332 (Frontiers in Oncology, 2022)
